We go through 1 substance from US20230313206A1, “System for inducible expression of an adapter in immune cells” (Miltenyi Biotec B.V. & Co. KG, priority 2020, published 2023).

What all share (format): cell-based
Test [1] relates to CD19+ Raji cells. As to the kind of experiment: Cytolytic activity of anti-His adapter CAR T cells in co-culture with Raji cells and inducible anti-CD19 Fab T cells. Conditions: adapter CAR T cells (E:T 2:1) and 1E4 inducible T cells, 6 days. The protocol:
Anti-His Adapter CAR T cell-mediated cytotoxicity against tumor cells was assessed by the quantification of living target cells using the MACSQuant® Analyzer 10 (Miltenyi Biotec). Therefore, 1E4 GFP^+ Raji cells were seeded in 50 μL TexMACS medium (Miltenyi Biotec) in a 96-well round-bottom plate. Anti-His Adapter CAR T cells were subsequently added at an E:T ratio of 2:1 in a volume of 50 μL TexMACS medium (Miltenyi Biotec). T cell numbers were adjusted to LNGFR expression implicating equal transduced and total T cell numbers in each well. The number of untransduced T cells was adjusted to total cell numbers. 1E4 anti-CD19 Fab inducible T cells that secrete the adapter molecule, a His-tagged anti-CD19 Fab, upon induction, were added to the respective wells. His-tagged anti-CD19 Fab secretion was induced by the addition of 100 nM 4-OHT (Sigma-Aldrich) in 50 μL TexMACS (Miltenyi Biotec) at the start of the assay. The plate was centrifuged at 300 g for 1 min and incubated at 37° C., 5% C02. The specific lysis of target cells was determined 6 days after co-culture set-up. […] Next, living target cells were quantified via flow cytometry. […] Living Raji tumor cells were defined as PI^−, GFP^+ cells and specific lysis was calculated according to the following formula: % specific lysis=(1−(Raji cell count [sample]/Raji cell count [target cell]))·100%.

Test [2] concerns drug-inducible T cells. As to the kind of experiment: Induction of anti-CD19 Fab-His6 secretion by drug-inducible primary T cells; supernatant stained on CD19+ Raji cells. Conditions: 4-OHT 0-500 nM. The protocol:
Lentiviral particles encoding for the drug-inducible cassette were manufactured as described in example 1.2. Drug-inducible T cells were generated as described in example 1.3. 1E4 LNGFR positive drug-inducible T cells were seeded in 100 μL TexMACS medium (Miltenyi Biotec) supplemented with IL-7 (Miltenyi Biotec) and IL-15 (Miltenyi Biotec) in a 96 round bottom well plate. Secretion of the His6-tagged anti-CD19 Fab was induced by the addition of different concentrations of 4-OHT (0-500 nM, Sigma-Aldrich) in 100 μL TexMACS medium (Miltenyi Biotec) supplemented with IL-7 (Miltenyi Biotec) and IL-15 (Miltenyi Biotec) to each well. Untransduced T cells constitute the negative control. Cells were incubated at 37° C. and 5% C02. His6-tagged anti-CD19 Fab containing supernatant was harvested 48 h after the induction. CD19^+ Raji cells were subsequently stained using T cell supernatant and anti-His-APC as secondary antibody. Therefore, 1E5 CD19^+ Raji cells were seeded in a 96 round bottom well plate. Cells were pelleted at 300 g for 5 min and stained with 50 μL of the collected T cell supernatant for 10 min at 4° C. […] The determined mean fluorescent intensity in the APC channel was correlated to the Fab concentration by extrapolation from a standard curve. […]

Test [3] deals with PD-1 expression on T cells. Briefly: PD-1 expression (activation) of anti-His adapter CAR T cells in co-culture with Raji cells and inducible anti-CD19 Fab T cells. Conditions: adapter CAR T cells (E:T 2:1) and 1E4 inducible T cells, day 2. The procedure: To set up the co-culture, 1E4 GFP^+ Raji cells were seeded in 50 μL TexMACS medium (Miltenyi Biotec) in a 96-well round-bottom plate. Anti-His Adapter CAR T cells were subsequently added at an E:T ratio of 2:1 in a volume of 50 μL TexMACS medium (Miltenyi Biotec). T cell numbers were adjusted to LNGFR expression implicating equal transduced and total T cell numbers in each well. The number of untransduced T cells was adjusted to total cell numbers. 1E4 anti-CD19 Fab inducible T cells that secrete the adapter molecule, a His-tagged anti-CD19 Fab, upon induction, were added to the respective wells. His-tagged anti-CD19 Fab secretion was induced by the addition of 100 nM 4-OHT (Sigma-Aldrich) in 50 μL TexMACS (Miltenyi Biotec) at the start of the assay. The plate was centrifuged at 300 g for 1 min and incubated at 37° C., 5% C02 for 2 days. Activation of T cells was analyzed by staining the cells of the co-culture with anti-PD-1-PEVio770, CD3-VioBlue, CD8-VioGreen and LNGFR-APC conjugates (Miltenyi Biotec). Therefore, the co-culture plate was centrifuged at 300 g for 5 min and cells were stained with 50 μL staining mixture composed of the PD-1 PE07, conjugate (Miltenyi Biotec) diluted in PEB for 10 min at 4° C. Cells were washed twice with 200 μL PEB (300 g, 5 min). Cells were resuspended in 100 μL PEB for subsequent flow cytometric analysis. […]

4-hydroxytamoxifen [4-OHT]: in test [1], the “4-OHT concentration at which specific lysis of CD19+ Raji cells was detected” value is listed as “at least 1 nM” and the “4-OHT concentration giving maximal specific lysis” value was “at least 10 nM”. For the same substance, the “Amount of His6-tagged anti-CD19-Fab in T cell supernatant with increasing 4-OHT concentration” value in test [2] (48 h, Fab concentration extrapolated from standard curve) was “increasing amounts of His6-tagged anti-CD19-Fab is detected”. In addition, the “Induction of His6-tagged anti-CD19-Fab secretion by inducible T cells” value in test [2] (supernatant harvested 48 h after induction) is on record as “strictly dependent on the presence of the inducer drug 4-OHT”. Moreover, in test [3], the “4-OHT concentration at which PD-1 expression on T cells was detected” value is recorded as “at least 10 nM” and the “4-OHT concentration giving maximal frequency of PD-1 positive cells” value is given as “at least 50 nM”.
